Literature values, collected in patent US20250241356A1, “ORAL COMPOSITION COMPRISING RECEPTOR MODULATOR” (NICOVENTURES TRADING LIMITED, priority 2022, published 2025).
Read-outs that look alike come from different tables or passages of the source.

What was measured:
[1] = biological target: TRPM8 (Mus musculus, UniProt Q8R4D5)
TRPM8, sequence (Q8R4D5 whole entry): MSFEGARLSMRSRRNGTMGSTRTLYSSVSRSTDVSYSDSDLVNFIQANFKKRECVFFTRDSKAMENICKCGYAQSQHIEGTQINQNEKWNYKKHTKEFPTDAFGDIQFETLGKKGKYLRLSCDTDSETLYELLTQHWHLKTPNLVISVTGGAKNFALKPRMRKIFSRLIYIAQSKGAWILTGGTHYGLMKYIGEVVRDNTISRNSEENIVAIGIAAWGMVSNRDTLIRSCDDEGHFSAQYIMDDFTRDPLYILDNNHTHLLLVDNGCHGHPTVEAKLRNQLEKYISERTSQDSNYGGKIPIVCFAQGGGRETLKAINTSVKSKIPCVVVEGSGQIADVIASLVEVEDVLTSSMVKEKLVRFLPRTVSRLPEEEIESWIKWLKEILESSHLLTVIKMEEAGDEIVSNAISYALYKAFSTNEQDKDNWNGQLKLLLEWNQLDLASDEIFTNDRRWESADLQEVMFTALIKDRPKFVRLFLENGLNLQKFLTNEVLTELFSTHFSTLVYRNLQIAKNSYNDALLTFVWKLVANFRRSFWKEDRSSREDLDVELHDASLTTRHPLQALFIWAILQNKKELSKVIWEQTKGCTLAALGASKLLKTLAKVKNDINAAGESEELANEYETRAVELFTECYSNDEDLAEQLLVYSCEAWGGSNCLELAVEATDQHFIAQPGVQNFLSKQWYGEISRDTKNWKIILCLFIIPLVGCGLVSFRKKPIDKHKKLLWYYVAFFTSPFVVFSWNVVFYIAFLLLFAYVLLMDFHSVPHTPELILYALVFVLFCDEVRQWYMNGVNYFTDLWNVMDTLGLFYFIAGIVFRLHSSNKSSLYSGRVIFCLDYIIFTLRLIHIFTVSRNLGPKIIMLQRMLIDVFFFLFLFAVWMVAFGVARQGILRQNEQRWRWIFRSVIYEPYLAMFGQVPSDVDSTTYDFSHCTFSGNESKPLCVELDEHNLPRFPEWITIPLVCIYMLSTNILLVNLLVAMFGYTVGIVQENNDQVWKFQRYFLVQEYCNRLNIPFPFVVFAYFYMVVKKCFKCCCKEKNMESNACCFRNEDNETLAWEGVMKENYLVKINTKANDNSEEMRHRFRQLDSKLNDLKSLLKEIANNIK

solubility in water | solubility in fats and alcohols | chemical stability when isolated (converts via isomerization into trans-bixin (β-bixin)) | responses to icilin ([1]; extracellular [H+] increased from pH 7.3 to approximately pH 6) | responses to icilin ([1]; standard physiological solutions of pH 7.3) | SMILES
water-soluble |  |  |  |  | CC(/C=C/C=C(C)/C=C/C(=O)O)=C\C=C\C=C(C)\C=C\C=C(C)\C=C\C(=O)O (stereo in doubt) [norbixin, (2E,4E,6E,8E,10E,12E,14E,16E,18E)-4,8,13,17-tetramethylicosa-2,4,6,8,10,12,14,16,18-nonaenedioic acid]
insoluble in water | soluble in fats and alcohols | chemically unstable when isolated |  |  | COC(=O)/C=C/C(C)=C\C=C\C(C)=C\C=C\C=C(C)\C=C\C=C(C)\C=C\C(=O)O [bixin, (2E,4E,6E,8E,10E,12E,14E,16Z,18E)-20-methoxy-4,8,13,17-tetramethyl-20-oxoicosa-2,4,6,8,10,12,14,16,18-nonaenoic acid]
 |  |  | abolished | evokes [Ca2+] dependent responses | O=C1NC(c2cccc([N+](=O)[O-])c2)=CCN1c1ccccc1O [icilin, 1-(2-hydroxyphenyl)-4-(3-nitrophenyl)-3,6-dihydropyrimidin-2-one]
